Here are results for 13 compounds from the NIST ThermoML archive (doi:10.1016/j.jct.2017.12.012).

Numbers after ± are expanded uncertainties.

For data set [1] the following is noted: 101.33 kPa, Liquid, Vibrating tube method.
Data set [2] is described as follows: activity coefficient (dimensionless); of the first substance listed, at infinite dilution; xn = mol fraction of the nth substance listed. Conditions: 101.33 kPa, Liquid, Chromatography, x1 = 0.

Usually mass density stands for the mass of a sample divided by its volume. As to `CCCCCCCCn1cc[n+](C)c1C.O=S(=O)([N-]S(=O)(=O)C(F)(F)F)C(F)(F)F`, the mass density is listed as 1296.1 ± 2.4 kg/m3 in data set [1] (313.15 K); 1287.4 ± 2.4 kg/m3 in data set [1] (323.15 K); 1278.6 ± 2.4 kg/m3 in data set [1] (333.15 K); 1269.1 ± 2.4 kg/m3 in data set [1] (343.15 K); 1258.2 ± 2.4 kg/m3 in data set [1] (353.15 K).
For `CO` [methanol] + CCCCCCCCn1cc[n+](C)c1C.O=S(=O)([N-]S(=O)(=O)C(F)(F)F)C(F)(F)F, the activity coefficient in data set [2] (313.15 K) is 1.37 ± 0.14; in data set [2] (323.15 K), 1.26 ± 0.13; in data set [2] (333.15 K) it was 1.14 ± 0.12; in data set [2] (343.15 K) it was 1.05 ± 0.11; in data set [2] (353.15 K), 0.96 ± 0.1.
For `CC1CCCCC1` [methylcyclohexane] + CCCCCCCCn1cc[n+](C)c1C.O=S(=O)([N-]S(=O)(=O)C(F)(F)F)C(F)(F)F, in that order: 5.67 ± 0.6, 4.88 ± 0.51, 4.25 ± 0.45, 3.79 ± 0.4 and 3.32 ± 0.35.
On the same counts, the results for `CCCCCCCCC` [nonane] + CCCCCCCCn1cc[n+](C)c1C.O=S(=O)([N-]S(=O)(=O)C(F)(F)F)C(F)(F)F are 14.4 ± 1.5, 12.1 ± 1.3, 10.4 ± 1.1, 9.04 ± 0.95 and 8.04 ± 0.85.
On the same counts, the results for `CCCCCCCC` [octane] + CCCCCCCCn1cc[n+](C)c1C.O=S(=O)([N-]S(=O)(=O)C(F)(F)F)C(F)(F)F are 11.1 ± 1.2, 9.5 ± 1, 8.12 ± 0.85, 7.17 ± 0.75 and 6.32 ± 0.66.
`CCCCCO` [pentan-1-ol] + CCCCCCCCn1cc[n+](C)c1C.O=S(=O)([N-]S(=O)(=O)C(F)(F)F)C(F)(F)F: the activity coefficient in data set [2] (313.15 K) came to 2.61 ± 0.27; in data set [2] (323.15 K), 2.22 ± 0.23; in data set [2] (333.15 K) it was 1.92 ± 0.2; in data set [2] (343.15 K), 1.62 ± 0.17; in data set [2] (353.15 K) it was 1.41 ± 0.15.
Take `CCCCC` [pentane] + CCCCCCCCn1cc[n+](C)c1C.O=S(=O)([N-]S(=O)(=O)C(F)(F)F)C(F)(F)F: the activity coefficient in data set [2] (313.15 K) is 6.78 ± 0.71; in data set [2] (323.15 K) it was 5.63 ± 0.59; in data set [2] (333.15 K), 4.81 ± 0.51; in data set [2] (343.15 K), 4.24 ± 0.45; in data set [2] (353.15 K) it was 3.66 ± 0.38.
For `CCCO` [propan-1-ol] + CCCCCCCCn1cc[n+](C)c1C.O=S(=O)([N-]S(=O)(=O)C(F)(F)F)C(F)(F)F, in that order: 1.94 ± 0.2, 1.67 ± 0.17, 1.42 ± 0.15, 1.22 ± 0.13 and 1.05 ± 0.11.
For `CC(C)O` [propan-2-ol] + CCCCCCCCn1cc[n+](C)c1C.O=S(=O)([N-]S(=O)(=O)C(F)(F)F)C(F)(F)F, the activity coefficient in data set [2] (313.15 K) is 2.13 ± 0.22; in data set [2] (323.15 K), 1.82 ± 0.19; in data set [2] (333.15 K) it was 1.56 ± 0.16; in data set [2] (343.15 K), 1.34 ± 0.14; in data set [2] (353.15 K) it was 1.17 ± 0.12.
On the same counts, the results for `ClC(Cl)(Cl)Cl` [tetrachloromethane] + CCCCCCCCn1cc[n+](C)c1C.O=S(=O)([N-]S(=O)(=O)C(F)(F)F)C(F)(F)F are 1.77 ± 0.18, 1.67 ± 0.17, 1.57 ± 0.16, 1.46 ± 0.15 and 1.39 ± 0.14.
Turning to `C1CCOC1` [tetrahydrofuran] + CCCCCCCCn1cc[n+](C)c1C.O=S(=O)([N-]S(=O)(=O)C(F)(F)F)C(F)(F)F, the activity coefficient in data set [2] (313.15 K) was found to be 0.54 ± 0.06; in data set [2] (323.15 K), 0.48 ± 0.05; in data set [2] (333.15 K), 0.44 ± 0.05; in data set [2] (343.15 K), 0.4 ± 0.05; in data set [2] (353.15 K), 0.37 ± 0.04.
With `Cc1ccccc1` [toluene] + CCCCCCCCn1cc[n+](C)c1C.O=S(=O)([N-]S(=O)(=O)C(F)(F)F)C(F)(F)F, the activity coefficient was 1.03 ± 0.1 in data set [2] (313.15 K); 0.94 ± 0.1 in data set [2] (323.15 K); 0.87 ± 0.09 in data set [2] (333.15 K); 0.82 ± 0.08 in data set [2] (343.15 K); 0.78 ± 0.08 in data set [2] (353.15 K).
Turning to `ClC(Cl)Cl` [trichloromethane] + CCCCCCCCn1cc[n+](C)c1C.O=S(=O)([N-]S(=O)(=O)C(F)(F)F)C(F)(F)F, the activity coefficient in data set [2] (313.15 K) was found to be 0.77 ± 0.08; in data set [2] (323.15 K), 0.7 ± 0.07; in data set [2] (333.15 K) it was 0.65 ± 0.07; in data set [2] (343.15 K) it was 0.6 ± 0.06; in data set [2] (353.15 K), 0.54 ± 0.06.
